IC50 data for 27 compounds are collected here from patent US10173991B2, “Sulfone amide linked benzothiazole inhibitors of endothelial lipase” (BRISTOL-MYERS SQUIBB COMPANY, priority 2014, dated 2019).

Structures are written as SMILES. Read-outs that look alike come from different tables or passages of the source.

The target in the test is Endothelial lipase (EL) (Homo sapiens (Human), UniProt Q9Y5X9). Briefly: Endothelial lipase (EL) enzymatic assay with fluorescent substrate A10070 in DMPG vesicles. The format is biochemical. The procedure, abridged: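 EL from conditioned medium of HT-1080 cells engineered to overexpress endogenous EL; HL partially purified from conditioned medium of HL-overexpressing COS cells. Enzyme preincubated with compound 30 min at 37° C in 50 mM HEPES pH 8.0, 50 mM NaCl, 1 mM CaCl2; DMPG vesicles carrying FRET substrate (0.11 mole fraction) then added.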
Chain of Endothelial lipase (EL) (Q9Y5X9 21-500): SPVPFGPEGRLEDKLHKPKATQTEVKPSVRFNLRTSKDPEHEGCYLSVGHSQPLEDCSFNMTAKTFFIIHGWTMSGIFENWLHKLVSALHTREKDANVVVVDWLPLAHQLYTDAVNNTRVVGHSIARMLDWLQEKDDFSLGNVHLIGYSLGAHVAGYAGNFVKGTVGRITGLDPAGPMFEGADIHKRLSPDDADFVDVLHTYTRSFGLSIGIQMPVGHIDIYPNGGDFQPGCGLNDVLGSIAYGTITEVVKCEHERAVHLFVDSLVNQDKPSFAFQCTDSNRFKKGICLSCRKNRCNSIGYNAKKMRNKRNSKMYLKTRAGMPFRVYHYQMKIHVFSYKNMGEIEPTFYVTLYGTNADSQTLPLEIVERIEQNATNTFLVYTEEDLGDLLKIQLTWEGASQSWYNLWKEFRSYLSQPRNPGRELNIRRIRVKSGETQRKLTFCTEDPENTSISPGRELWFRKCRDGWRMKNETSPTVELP

For orientation: IC50 means the concentration that inhibits the measured activity by half. Lower therefore signals greater potency. In turn, `CC(C)OCCNC(=O)CNC(=O)C(c1nc2cc(F)cc(-c3ccc(F)nc3)c2s1)S(=O)(=O)c1ccc(F)cc1` (stereo not drawn) [Example 465, 2-[5-fluoro-7-(6-fluoropyridin-3-yl)-1,3-benzothiazol-2-yl]-2-(4-fluorobenzene-sulfonyl)-N-({[2-(propan-2-yloxy)ethyl]carbamoyl}methyl)acetamide] registered a 50% inhibitory concentration (IC50) of 53 nM.
On the same count and under the same terms, with `CC(C)OCCNC(=O)CNC(=O)C(c1nc2cc(F)cc(-c3cnc(C4CC4)nc3)c2s1)S(=O)(=O)c1ccc(F)cc1` (stereo not drawn) [Example 466, 2-[7-(2-cyclopropyl-pyrimidin-5-yl)-5-fluoro-1,3-benzothiazol-2-yl]-2-(4-fluorobenzene-sulfonyl)-N-({[2-(propan-2-yloxy)ethyl]carbamoyl}methyl)acetamide] the figure was 157 nM; with `O=C(CNC(=O)C(c1nc2ccc(-c3ccc(F)nc3)cc2s1)S(=O)(=O)c1cccnc1)NC1CC1` (stereo not drawn) [Example 467, N-[(cyclopropyl-carbamoyl)methyl]-2-[6-(6-fluoropyridin-3-yl)-1,3-benzothiazol-2-yl]-2-(pyridine-3-sulfonyl) acetamide], 193 nM; with `O=C(CNC(=O)C(c1nc2ccc(-c3ccc4c(c3)CNC4=O)cc2s1)S(=O)(=O)c1cccnc1)NC1CC1` (stereo not drawn) [Example 468, N-[(cyclopropyl-carbamoyl)methyl]-2-[6-(1-oxo-2,3-dihydro-1H-isoindol-5-yl)-1,3-benzothiazol-2-yl]-2-(pyridine-3-sulfonyl) acetamide], 6 nM.
On the same count and under the same terms, for `Cc1ncc(-c2cc(C)c3nc(C(C(=O)NCC(=O)NC4CC4)S(=O)(=O)c4ccc(F)cc4)sc3c2)cn1` (stereo not drawn) [Example 469, N-[(cyclopropyl-carbamoyl)methyl]-2-(4-fluorobenzene-sulfonyl)-2-[4-methyl-6-(2-methylpyrimidin-5-yl)-1,3-benzothiazol-2-yl]acetamide] the value was 41 nM; for `CC(C)n1cc(-c2cc(F)c3nc(C(C(=O)NCC(=O)NC4CC4)S(=O)(=O)c4ccc(F)cc4)sc3c2)ccc1=O` (stereo not drawn) [Example 470, N-[(cyclopropyl-carbamoyl)methyl]-2-{4-fluoro-6-[6-oxo-1-(propan-2-yl)-1,6-dihydropyridin-3-yl]-1,3-benzothiazol-2-yl}-2-(4-fluorobenzene-sulfonyl)acetamide], 16 nM; for `Cc1ncc(-c2cc(F)c3nc(C(C(=O)NCC(=O)NC4CC4)S(=O)(=O)c4ccc(F)cc4)sc3c2)cn1` (stereo not drawn) [Example 471, N-[(cyclopropyl-carbamoyl)methyl]-2-[4-fluoro-6-(2-methylpyrimidin-5-yl)-1,3-benzothiazol-2-yl]-2-(4-fluorobenzene-sulfonyl)acetamide], 23 nM.
Still for that read-out and setting: for `O=C(CNC(=O)C(c1nc2c(F)cc(-c3ccc(F)nc3)cc2s1)S(=O)(=O)c1ccc(F)cc1)NC1CC1` (stereo not drawn) [Example 472, N-[(cyclopropyl-carbamoyl)methyl]-2-[4-fluoro-6-(6-fluoropyridin-3-yl)-1,3-benzothiazol-2-yl]-2-(4-fluorobenzene-sulfonyl)acetamide] the value was 23 nM; for `Cn1ccc(-c2cc(F)c3nc(C(C(=O)NCC(=O)NC4CC4)S(=O)(=O)c4ccc(F)cc4)sc3c2)cc1=O` (stereo not drawn) [Example 473, N-[(cyclopropyl-carbamoyl)methyl]-2-[4-fluoro-6-(1-methyl-2-oxo-1,2-dihydropyridin-4-yl)-1,3-benzothiazol-2-yl]-2-(4-fluorobenzene-sulfonyl)acetamide], 77 nM; for `O=C(CNC(=O)C(c1nc2c(F)cc(-c3cncnc3)cc2s1)S(=O)(=O)c1ccc(F)cc1)NC1CC1` (stereo not drawn) [Example 474, N-[(cyclopropyl-carbamoyl)methyl]-2-[4-fluoro-6-(pyrimidin-5-yl)-1,3-benzothiazol-2-yl]-2-(4-fluorobenzene-sulfonyl)acetamide], 116 nM.
`O=C(CNC(=O)C(c1nc2c(F)cc(-c3ccc4[nH]c(=O)ccc4c3)cc2s1)S(=O)(=O)c1ccc(F)cc1)NC1CC1` (stereo not drawn) [Example 475, N-[(cyclopropyl-carbamoyl)methyl]-2-[4-fluoro-6-(2-oxo-1,2-dihydroquinolin-6-yl)-1,3-benzothiazol-2-yl]-2-(4-fluorobenzene-sulfonyl)acetamide] yielded a half-inhibitory concentration (IC50) of 7 nM.
Regarding `O=C(CNC(=O)C(c1nc2c(F)cc(-c3cnc(C4CC4)nc3)cc2s1)S(=O)(=O)c1ccc(F)cc1)NC1CC1` (stereo not drawn) [Example 476, N-[(cyclopropyl-carbamoyl)methyl]-2-[6-(2-cyclopropyl-pyrimidin-5-yl)-4-fluoro-1,3-benzothiazol-2-yl]-2-(4-fluorobenzene-sulfonyl)acetamide], the IC50 is 51 nM.
Same read-out and setting: for `O=C(CNC(=O)C(c1nc2c(F)cc(-c3ccc4c(c3)C(=O)NC4)cc2s1)S(=O)(=O)c1ccc(F)cc1)NC1CC1` (stereo not drawn) [Example 477, N-[(cyclopropyl-carbamoyl)methyl]-2-[4-fluoro-6-(3-oxo-2,3-dihydro-1H-isoindol-5-yl)-1,3-benzothiazol-2-yl]-2-(4-fluorobenzene-sulfonyl)acetamide] the value was 68 nM.
On the same count and under the same terms, for `COC(=O)Nc1ccc(-c2cc3sc(C(C(=O)NCC(=O)NC4CC4)S(=O)(=O)c4ccc(F)cc4)nc3cc2F)cc1` (stereo not drawn) [Example 478, methyl N-{4-[2-({[(cyclopropyl-carbamoyl)methyl]carbamoyl}(4-fluorobenzene-sulfonyl)methyl)-5-fluoro-1,3-benzothiazol-6-yl]phenyl}carbamate] the value was 2 nM.
The same measure, in the same setting: with `O=C(CNC(=O)C(c1nc2cc(F)c(-c3ccc(-n4ccccc4=O)cc3)cc2s1)S(=O)(=O)c1ccc(F)cc1)NC1CC1` (stereo not drawn) [Example 479, N-[(cyclopropyl-carbamoyl)methyl]-2-{5-fluoro-6-[4-(2-oxo-1,2-dihydropyridin-1-yl)phenyl]-1,3-benzothiazol-2-yl}-2-(4-fluorobenzene-sulfonyl)acetamide] the figure was 9 nM.
For `COCCNC(=O)c1ccc(-c2ccc3nc(C(C(=O)NCC(=O)NC4CC4)S(=O)(=O)N4CCOCC4)sc3c2)cc1` (stereo not drawn) [Example 480, 4-[2-({[(Cyclopropylcarbamoyl)methyl]carbamoyl}(morpholine-4-sulfonyl)methyl)-1,3-benzothiazol-6-yl]-N-(2-methoxyethyl)benzamide], the IC50 (EL from conditioned media of HT-1080 cells, 30 min preincubation at 37° C.) turned out to be 4 nM.
On to `O=C(CNC(=O)C(c1nc2ccc(-c3cncnc3)cc2s1)S(=O)(=O)N1CCOCC1)NC1CC1` (stereo not drawn) [Example 481, N-[(cyclopropyl-carbamoyl)methyl]-2-(morpholine-4-sulfonyl)-2-[6-(pyrimidin-5-yl)-1,3-benzothiazol-2-yl]acetamide], for which the IC50 was found to be 99 nM.
Still for that read-out and setting: for `O=C(CNC(=O)C(c1nc2ccc(-c3cccnc3F)cc2s1)S(=O)(=O)N1CCOCC1)NC1CC1` (stereo not drawn) [Example 482, N-[(cyclopropyl-carbamoyl)methyl]-2-[6-(2-fluoropyridin-3-yl)-1,3-benzothiazol-2-yl]-2-(morpholine-4-sulfonyl)acetamide] the value was 173 nM; for `O=C(CNC(=O)C(c1nc2ccc(-c3ccc(F)nc3)cc2s1)S(=O)(=O)N1CCOCC1)NC1CC1` (stereo not drawn) [Example 483, N-[(cyclopropyl-carbamoyl)methyl]-2-[6-(6-fluoropyridin-3-yl)-1,3-benzothiazol-2-yl]-2-(morpholine-4-sulfonyl)acetamide], 299 nM; for `CN(C)S(=O)(=O)C(C(=O)NCC(=O)NC1CC1)c1nc2ccc(-c3ccc(F)nc3)cc2s1` (stereo not drawn) [Example 484, N-[(cyclopropyl-carbamoyl)methyl]-2-(dimethyl-sulfamoyl)-2-[6-(6-fluoropyridin-3-yl)-1,3-benzothiazol-2-yl]acetamide], 7 nM.
On the same count and under the same terms, for `Cn1ccc(-c2ccc3nc(C(C(=O)NCC(=O)NC4CC4)S(=O)(=O)N4CCOCC4)sc3c2)cc1=O` (stereo not drawn) [Example 485, N-[(cyclopropyl-carbamoyl)methyl]-2-[6-(1-methyl-2-oxo-1,2-dihydropyridin-4-yl)-1,3-benzothiazol-2-yl]-2-(morpholine-4-sulfonyl)acetamide] the value was 57 nM.
Still for that read-out and setting: with `O=C(CNC(=O)C(c1nc2cc(F)c(-c3ccc(F)nc3)cc2s1)S(=O)(=O)N1CCOCC1)NC1CC1` (stereo not drawn) [Example 486, N-[(cyclopropyl-carbamoyl)methyl]-2-[5-fluoro-6-(6-fluoropyridin-3-yl)-1,3-benzothiazol-2-yl]-2-(morpholine-4-sulfonyl)acetamide] the figure was 48 nM; with `Cc1cc(-c2cc3sc(C(C(=O)NCC(=O)NC4CC4)S(=O)(=O)N4CCOCC4)nc3cc2F)cnn1` (stereo not drawn) [Example 487, N-[(cyclopropyl-carbamoyl)methyl]-2-[5-fluoro-6-(6-methylpyridazin-4-yl)-1,3-benzothiazol-2-yl]-2-(morpholine-4-sulfonyl) acetamide], 93 nM.
Compound `COC(=O)Nc1ccc(-c2cc3sc(C(C(=O)NCC(=O)NC4CC4)S(=O)(=O)N4CCOCC4)nc3cc2F)cc1F` (stereo not drawn) [Example 488, methyl N-{4-[2-({[(cyclopropyl-carbamoyl)methyl]carbamoyl} (morpholine-4-sulfonyl)methyl)-5-fluoro-1,3-benzothiazol-6-yl]-2-fluorophenyl} carbamate] gave an IC50 of 13 nM.
On the same count and under the same terms, with `CN(C)S(=O)(=O)C(C(=O)NCC(=O)NC1CC1)c1nc2c(F)cc(-c3ccc(F)nc3)cc2s1` (stereo not drawn) [Example 489, N-[(cyclopropyl-carbamoyl)methyl]-2-(dimethyl-sulfamoyl)-2-[4-fluoro-6-(6-fluoropyridin-3-yl)-1,3-benzothiazol-2-yl]acetamide] the figure was 165 nM.
On the same count and under the same terms, for `Cc1cc(-c2cc(F)c3nc(C(C(=O)NCC(=O)NC4CC4)S(=O)(=O)N(C)C)sc3c2)cnn1` (stereo not drawn) [Example 490, N-[(cyclopropyl-carbamoyl)methyl]-2-(dimethyl-sulfamoyl)-2-[4-fluoro-6-(6-methypylridazin-4-yl)-1,3-benzothiazol-2-yl]acetamide] the value was 207 nM; for `Cc1ncc(-c2cc(F)c3nc(C(C(=O)NCC(=O)NC4CC4)S(=O)(=O)N(C)C)sc3c2)cn1` (stereo not drawn) [Example 491, N-[(cyclopropyl-carbamoyl)methyl]-2-(dimethyl-sulfamoyl)-2-[4-fluoro-6-(2-methylpyrimidin-5-yl)-1,3-benzothiazol-2-yl]acetamide], 82 nM.
